Test results: the METLIN SMRT retention time set (Domingo-Almenara et al. 2019)

Assay: gradient 5% acetonitrile 3 min, to 50% in 2 min, to 85% in 15 min, held 3 min, 100 µL/min
Settings: column: Zorbax Extend-C18 2.1 x 50 mm; eluents: water / acetonitrile, 0.1% formic acid
How it was run: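 In both positive and negative ionization mode, a quadrupole time-of-flight mass spectrometer coupled to HPLC analyzed pure standards run in mixtures of ~100 molecules. The Zorbax Extend-C18 column (2.1 × 50 mm, 1.8 μm) was operated at 100 μL/min with water and acetonitrile, each containing 0.1% formic acid. The dead volume was 40 μL and the dwell volume 900 μL. Retention time came from adduct peaks that were computationally picked and individually inspected by hand.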

RP-LC retention time [s]	Compound
646	CN1C(=O)c2cccn2CC1CNC(=O)NCc1ccccc1 (stereo not drawn)
610	O=C(CN1CCN(Cc2ccccc2F)C1=O)NC1CCN(Cc2ccccc2)CC1
566	Cn1c(N2CCC(C(=O)NCc3ccccn3)CC2)cc(=O)n(C)c1=O
782	Cc1ccc(N2C(=O)SC(N(CC(N)=O)c3ccc(C)cc3)C2=O)cc1 (stereo not drawn)
700	COc1ccccc1NC(=O)Nc1c(-c2cccc(C)c2)nc2ccccn12
734	COCCN1CCCCc2cc(C(=O)NC3CCS(=O)(=O)C3)sc21 (stereo not drawn)
999	CC1CCN(S(=O)(=O)c2cc(-c3nnc(C4CCC4)o3)co2)CC1
994	O=C(Cc1ccccc1)N1CCCC1c1nc(-c2ccccc2Cl)no1 (stereo not drawn)
713	CNC(=O)c1ccc(-c2nc3cc(NS(=O)(=O)c4cc(C)c(C)cc4C)ccc3n2C)cc1
785	CS(=O)(=O)N1CCC(OC2CCN(C(=O)Nc3ccccc3Cl)CC2)CC1
885	Cc1cc(C2CCCN2C(=O)c2cc(-c3ccccc3F)no2)no1 (stereo not drawn)
729	COCC(=O)Nc1cnc(-c2ccccc2)nc1
1100	CC(C)(C)c1noc(-c2ccnc(-n3cnc(C(=O)NC4CCCCC4)c3)c2)n1
679	COc1cccc(OC)c1C(=O)N1CCCC1c1cc(C)on1 (stereo not drawn)
582	CCC(=O)Nc1ccc(CCc2nc3ccc(C(=O)NC4CC4)cc3[nH]2)cc1
755	CC(C)c1cccc(NC(=O)C2CCc3nc(N4CCOCC4)ncc3C2)c1 (stereo not drawn)
640	O=C(CSCc1ccccc1)Nc1cccc(-c2cn3cccnc3n2)c1
887	O=C(NCCC1=CCCCC1)c1c(OCC2CC2)cc(=O)n2c1CCCCC2

RP-LC retention time [s]	Compound
829	O=C(NCc1ccco1)C1CCN(c2nc3ccsc3c(=O)n2Cc2ccccc2)CC1
631	O=C1c2cccc3cccc(c23)C(=O)N1c1cccnc1
578	O=C(NCCCN1CCCC1=O)C(=O)Nc1nccs1
952	Fc1ccccc1CNc1nnc(-c2nc(C3CC3)no2)c2ccccc12
1090	CCN(CC)S(=O)(=O)c1ccc(C)c(-c2nnc(-c3ccccc3)o2)c1
764	CCOc1ccc(C(=O)N2C[C@@H]3C[C@H]2C[C@@H]3NS(=O)(=O)c2ccccc2)cc1
1040	Cc1sc2ccn(CC(C)C)c(=O)c2c1C(=O)NCc1cc(F)ccc1F
868	COc1ccc(NC(=O)c2ccccc2NC(=O)C2CCN(C(=O)C(C)(C)C)CC2)cc1
726	Cc1ccc(NC(=O)CSc2nc3nc(C)cc(C)n3n2)cc1
577	CCC(=O)N1CCc2sc(C(=O)NCc3ccccn3)cc2C1
700	Cc1cc(C)c2c(n1)SCCN2C(=O)CCC(=O)NCc1ccccc1C
630	Cc1nc(Nc2ccc(Br)cn2)sc1C(=O)N1CCN(C(C)C)CC1
612	CC(=O)N1CCC(n2c(C)nc(C(=O)Nc3ccc4c(c3)OCCO4)c2C)CC1
916	CCc1nc2cc(-c3noc(C(C)NC(=O)c4ccccc4)n3)ccc2o1 (stereo not drawn)
667	COc1ccc(C(=O)Nc2cccn3c(C)nnc23)cc1F
1110	CCc1nc(-c2csc(S(=O)(=O)N3CCCC(C(=O)Nc4ccc(C)c(F)c4)C3)c2)no1 (stereo not drawn)
809	CC(C)(C)n1nnnc1C1CC2(CCOCC2)C(=O)N1Cc1ccc(F)cc1F (stereo not drawn)
792	CCc1nc2c(NC(=O)c3ccccc3)cccn2n1

Compound	RP-LC retention time [s]
O=S(=O)(c1ccccc1)N1[C@H]2CC[C@@H]1c1cncnc1C2	678
O=C(NCc1ccco1)c1c(O)c2cccnc2n(Cc2ccccc2)c1=O	1250
